Results on 21 compounds are retold here after patent US20240109905A1, “4-ALKOXY-6-OXO-PYRIDAZINE DERIVATIVES MODULATING NLRP3” (JANSSEN PHARMACEUTICA NV, priority 2021, published 2024).

The structures appear in SMILES notation.

The subject of one experiment is IL-1β. The experiment can be described thus: PBMC assay: IL-1β release after LPS stimulation. The format is cell-based. The conditions noted are these: PBMC; human PBMCs, 30 min compound, 100 ng/ml LPS for 6 hrs, MSD; read-out: IL1β AC50. The method, then:
The activity of a compound according to the present invention can be assessed by in vitro methods.
(§1) Peripheral venous blood was collected from healthy individuals and human peripheral blood mononuclear cells (PBMCs) were isolated from blood by Ficoll-Histopaque (Sigma-Aldrich, A0561) density gradient centrifugation. After isolation, PBMCs were stored in liquid nitrogen for later use. Upon thawing, PBMC cell viability was determined in growth medium (RPMI media supplemented with 10% fetal bovine serum, 1% Pen-Strep and 1% L-glutamine). Compounds were spotted in a 1:3 serial dilution in DMSO and diluted to the final concentration in 30 μl medium in 96 well plates (Falcon, 353072). PBMCs were added at a density of 7.5×10^4 cells per well and incubated for 30 min in a 5% CO2 incubator at 37° C. LPS stimulation was performed by addition of 100 ng/ml LPS (final concentration, Invivogen, tlrl-smlps) for 6 hrs followed by collection of cellular supernatant and the analysis of IL-1β (μM) and TNF cytokines levels (μM) via MSD technology according to manufacturers' guidelines (MSD, K151A0H).
(§2) IC50 and AC50 values (for […]) and EC50 and AC50 values (TNF) were obtained on compounds of the invention/examples, and the AC50 values are depicted in the following table: […]

Another experiment concerns TNF. The experiment can be described thus: PBMC assay: TNF cytokine level after LPS stimulation. The format is cell-based. As to conditions: PBMC; human PBMCs, 30 min compound, 100 ng/ml LPS for 6 hrs, MSD. The protocol:
as §1, §2

For `CC(C)COc1cc(=O)n(CC(=O)NC23CC(C4=NN(C)C(=O)C4)(C2)C3)nc1C(C)C` [Compound 98, 2-(4-isobutoxy-3-isopropyl-6-oxopyridazin-1(6H)-yl)-N-(3-(1-methyl-5-oxo-4,5-dihydro-1H-pyrazol-3-yl)bicyclo[1.1.1]pentan-1-yl)acetamide], the AC50 in the experiment with IL-1β is 960 nM; in the experiment with TNF, over 20000 nM.
The like results for `CC(C)COc1cc(=O)n(CC(=O)NC23CCC(N)(CC2)CC3)nc1C(C)C` [Compound 99] were, in that order, 970 nM and over 20000 nM.
The like results for `CC(C)COc1cc(=O)n(CC(=O)Nc2cn3cccnc3n2)nc1C(C)C` [Compound 100] were, in that order, 1000 nM and 4810 nM.
For `CC(C)COc1cc(=O)n(CC(=O)NC23CC(S(C)(=O)=O)(C2)C3)nc1C(C)C` [Compound 101], the results for the AC50 with IL-1β and in the experiment on TNF were 1020 nM and over 20000 nM, respectively.
The like results for `CC(C)c1nn(CC(=O)Nc2ccc3nncn3n2)c(=O)cc1OCCC(F)(F)F` [Compound 102] were, in that order, 1060 nM and over 20000 nM.
Consider `CC(C)COc1cc(=O)n(CC(=O)Nc2cc3ncccn3n2)nc1C(C)C` [Compound 103], for which the AC50 was 1100 nM in the experiment with IL-1β and over 20000 nM in the experiment on TNF.
The like results for `CC(C)COc1cc(=O)n(CC(=O)NC23CCC(C(=O)O)(CC2)C3)nc1C(C)C` [Compound 104] were, in that order, 1120 nM and over 20000 nM.
The like results for `CC(C)COc1cc(=O)n(CC(=O)NC23CC(F)(C2)C3)nc1C(C)C` [Compound 105] were, in that order, 1210 nM and over 20000 nM.
`CN(C)c1nn(CC(=O)Nc2ccc3nncn3c2)c(=O)cc1OCC(F)(F)F` [Compound 106]: the AC50 is 1210 nM in the experiment on IL-1β and over 20000 nM with TNF.
Regarding `CC(C)COc1cc(=O)n(CC(=O)NC23CC(C(N)C(F)(F)F)(C2)C3)nc1C(C)C` (stereo not drawn) [Compound 107], the AC50 in the experiment with IL-1β was 1310 nM; in the experiment on TNF, over 20000 nM.
For the compound `CC(C)COc1cc(=O)n(CC(=O)Nc2ccc3nncn3n2)nc1OCC(C)C` [Compound 108], the AC50 with IL-1β was 1330 nM; in the experiment with TNF it was over 20000 nM.
Take `CNC(C(F)(F)F)C12CC(NC(=O)Cn3nc(C(C)C)c(OCC(C)C)cc3=O)(C1)C2` (stereo not drawn) [Compound 109]: the AC50 with IL-1β was 1350 nM; with TNF, over 20000 nM.
The like results for `CC(C)COc1cc(=O)n(CC(=O)NC23CC(C2)C3)nc1C(C)C` [Compound 110] were, in that order, 1440 nM and over 20000 nM.
The like results for `COCC12CC(NC(=O)Cn3nc(C(C)C)c(OCC(C)C)cc3=O)(C1)C2` [Compound 111] were, in that order, 1470 nM and over 20000 nM.
For the compound `CC(C)COc1cc(=O)n(CC(=O)NC23CC(CS(C)(=O)=O)(C2)C3)nc1C(C)C` [Compound 112], the AC50 in the experiment with IL-1β is 1550 nM; in the experiment with TNF it was over 20000 nM.
The like results for `CC(C)COc1cc(=O)n(CC(=O)Nc2cc3ccccn3n2)nc1C(C)C` [Compound 113] were, in that order, 1790 nM and over 20000 nM.
The like results for `CC(C)c1nn(CC(=O)Nc2ccc3nncn3c2)c(=O)c(Cl)c1OCC(F)(F)F` [Compound 114] were, in that order, 1850 nM and over 20000 nM.
The like results for `CC(C)COc1cc(=O)n(CC(=O)NC23CCC(NC(=O)OC(C)(C)C)(C2)C3)nc1C(C)C` [Compound 115] were, in that order, 1880 nM and over 20000 nM.
As to `CC(C)COc1cc(=O)n(CC(=O)NC23CC(S(=O)(=O)C4CC4)(C2)C3)nc1C(C)C` [Compound 116], the AC50 in the experiment on IL-1β is 1910 nM; in the experiment with TNF, over 20000 nM.
The like results for `CC(C)COc1cc(=O)n(CC(=O)NC23CC(N)(C2)C3)nc1C(C)C` [Compound 117] were, in that order, 2040 nM and over 20000 nM.
The like results for `CC(C)COc1c(C(C)C)nn(CC(=O)Nc2ccc3nncn3c2)c(=O)c1C(F)F` [Compound 118] were, in that order, 2300 nM and over 20000 nM.

As a reminder, the AC50 is the concentration giving half of the maximal activity seen.
